Reference: US8420811B2, “Tetrahydroisoquinolines and intermediates therefor” (Bristol-Myers Squibb Company, priority 2008, dated 2013)
Values after ≈ are worked out from the molar mass of the structure shown. Values belong to the molecule of their own block, whether it stands above or below them.

Tests used:
Assay type in all cases: physicochemical
[1] = pH-Solubility profile (aqueous solubility); conditions: for solubility: aqueous solution, aqueous buffer
[2] = Solution pH; conditions: at about 1 μg/mL concentration in water
[3] = Distribution coefficient
[4] = pKa
[5] = Solubility profile (USP definition) in solvents

- solubility ([1]; at pH 2.0): 15600 µg/mL (≈ 42.6 mM)
- solubility ([1]; at pH 4.4): 1760 µg/mL (≈ 4.8 mM)
- solubility ([1]; at solution pH 6.5 and above): ≤ 1 µg/mL
SMILES: CN1Cc2cc(-c3ccc(N)nn3)ccc2[C@H](c2ccc3ccccc3c2)C1 [Compound 2, (S)-6-(2-methyl-4-(naphthalen-2-yl)-1,2,3,4-tetrahydroisoquinolin-7-yl)pyridazin-3-amine]

- Distribution coefficient Log Do/b ([3]; at pH 6.5): 3.10
- Distribution coefficient Log Do/b ([3]; at pH 7.4): 3.82
- pKa ([4]; first of two printed pKa values): 4.9
- pKa ([4]; second of two printed pKa values): 7.8
- Solubility profile (USP definition) ([5]; PEG 400): sparingly soluble: PEG 400
- Solubility profile (USP definition) ([5]; n-heptane): practically insoluble: n-heptane
- Solubility profile (USP definition) ([5]; tetrahydrofuran): freely soluble: tetrahydrofuran
- aqueous solubility (in words) ([1]; general statement, no pH given): high aqueous solubility
SMILES: CN1Cc2cc(-c3ccc(N)nn3)ccc2[C@H](c2ccc3ccccc3c2)C1 [Form N-1, 6-[(4S)-1,2,3,4-tetrahydro-2-methyl-4-(2-naphthalenyl)-7-isoquinolinyl]-3-pyridazinamine]
- Solution pH [2]: ~7.0 at about 1 μg/mL concentration in water
- Solubility profile (USP definition) ([5]; N,N-dimethylacetamide): soluble: N,N-dimethylacetamide, dimethylsulfoxide
- Solubility profile (USP definition) ([5]; acetone): slightly soluble: isopropanol, acetone, ethanol, methanol
- Solubility profile (USP definition) ([5]; acetonitrile): very slightly soluble: acetonitrile, ethyl acetate, n-butanol
- Solubility profile (USP definition) ([5]; dichloromethane): slightly soluble: isopropanol, acetone, ethanol, methanol
- Solubility profile (USP definition) ([5]; dimethylsulfoxide): soluble: N,N-dimethylacetamide, dimethylsulfoxide
- Solubility profile (USP definition) ([5]; ethanol): slightly soluble: isopropanol, acetone, ethanol, methanol
- Solubility profile (USP definition) ([5]; ethyl acetate): very slightly soluble: acetonitrile, ethyl acetate, n-butanol
- Solubility profile (USP definition) ([5]; isopropanol): slightly soluble: isopropanol, acetone, ethanol, methanol
- Solubility profile (USP definition) ([5]; methanol): slightly soluble: isopropanol, acetone, ethanol, methanol
- Solubility profile (USP definition) ([5]; n-butanol): very slightly soluble: acetonitrile, ethyl acetate, n-butanol
- Solubility profile (USP definition) ([5]; propylene glycol): slightly soluble: isopropanol, acetone, ethanol, methanol
